# According to US11045561B2, “Rotaxane-type probe for molecular imaging” (Rhode Island Council on Postsecondary Education, priority 2017, dated 2021):
# Assays:
# [1] = cited from earlier work; for affinity for xenon as observed by 129Xe NMR: aqueous media, room temperature for cyclodextrins
# [2] = HyperCEST detection by hyperpolarized 129Xe NMR (fritted phantom, 3T clinical scanner); settings: 10 mM in water; saturation pulse at about +128 ppm; 3T scanner
# Method: FIGS. 7A and 7B show HyperCEST data for rotaxane-type biosensors: (FIG. 7A) cucurbiturils and pillararene-based; (FIG. 7B) cycodextrin-based. [Note: ^a Samples were dissolved in water (2 mL, 10 mM), and 1D ^129Xe spectrum were initially recorded and then a series of HyperCEST spectra were sequentially recorded using a series of off resonance pulses varying by 5 ppm. ^b Performed in H2O/DMSO. ^c Performed in CHCl3.]
# For the HP-Xe studies, we used a custom-built fritted phantom inside of a custom dual tuned ^1H/^129Xe radiofrequency (RF) coil to acquire all free induction decay (FID) spectra (FIG. 6). Rotaxane-type biosensor molecules, dissolved in water and/or DMSO, were placed inside the fritted phantom, and HP ^129Xe was introduced below the fritted phantom that created microbubbles that rose vertically through the sample. A series of saturation pre-pulses at a variety of chemical shift offsets were loaded into the user interface software of the […] Achieva 3T MR scanner. Spectra with different saturation pre-pulses were acquired approximately every six seconds. […]
# Nuclear Magnetic Resonance (NMR) HyperCEST Detection. […] The RF pulse length was determined with the use of the Ref B1, a parameter of Philips MR scanners. […] In this study, the B1 field strength was determined by the scanner to be 15.9 μT. […]
Molecule,affinity for xenon as observed by 129Xe NMR [1],other results
COc1cc2c3cc1OCCOc1cc4c(cc1OC)Cc1cc5c(OC)cc1Cc1cc(c(OC)cc1C4)OCCOc1cc(c(cc1OC)C3)Cc1cc(OC)c(cc1C2)OCCO5 [Cryptophane-A],,xenon residence time ([1]; room temperature): 0.5 to 8 ms
"OC[C@H]1O[C@@H]2O[C@H]3[C@H](O)[C@@H](O)[C@@H](O[C@H]4[C@H](O)[C@@H](O)[C@@H](O[C@H]5[C@H](O)[C@@H](O)[C@@H](O[C@H]6[C@H](O)[C@@H](O)[C@@H](O[C@H]7[C@H](O)[C@@H](O)[C@@H](O[C@H]8[C@H](O)[C@@H](O)[C@@H](O[C@H]9[C@H](O)[C@@H](O)[C@@H](O[C@H]1[C@H](O)[C@H]2O)O[C@@H]9CO)O[C@@H]8CO)O[C@@H]7CO)O[C@@H]6CO)O[C@@H]5CO)O[C@@H]4CO)O[C@@H]3CO [γ-CD, γ-cyclodextrin]","either fail to bind xenon in aqueous media, or the reversible binding has too fast of an exchange rate to be detectable",
"OC[C@H]1O[C@@H]2O[C@H]3[C@H](O)[C@@H](O)[C@@H](O[C@H]4[C@H](O)[C@@H](O)[C@@H](O[C@H]5[C@H](O)[C@@H](O)[C@@H](O[C@H]6[C@H](O)[C@@H](O)[C@@H](O[C@H]7[C@H](O)[C@@H](O)[C@@H](O[C@H]1[C@H](O)[C@H]2O)O[C@@H]7CO)O[C@@H]6CO)O[C@@H]5CO)O[C@@H]4CO)O[C@@H]3CO [α-CD, α-cyclodextrin]","either fail to bind xenon in aqueous media, or the reversible binding has too fast of an exchange rate to be detectable",
"O=C1N2CN3C(=O)N4CN5C(=O)N6CN7C(=O)N8CN9C(=O)N%10CN%11C(=O)N%12CN1C1C2N2CN%13C(=O)N(CN%14C(=O)N(CN%15C(=O)N(CN%16C(=O)N(CN%17C(=O)N(CN1C2=O)C%12C%11%17)C%10C9%16)C8C7%15)C6C5%14)C4C3%13 (stereo not shown) [CB6, cucurbit[6]uril]",,HyperCEST depletion (maximum) [2]: 67%
"O=C1N2CN3C(=O)N4CN5C(=O)N6CN7C(=O)N8CN9C(=O)N%10CN%11C(=O)N%12CN%13C(=O)N%14CN%15C(=O)N%16CN1C1C2N2CN%17C(=O)N(CN%18C(=O)N(CN%19C(=O)N(CN%20C(=O)N(CN%21C(=O)N(CN%22C(=O)N(CN%23C(=O)N(CN1C2=O)C%16C%15%23)C%14C%13%22)C%12C%11%21)C%10C9%20)C8C7%19)C6C5%18)C4C3%17 (stereo not shown) [CB[8], cucurbit[8]uril]",do not show any affinity for xenon,
cucurbit[7]uril [CB[7]],do not show any affinity for xenon,
"OC[C@H]1O[C@@H]2O[C@H]3[C@H](O)[C@@H](O)[C@@H](O[C@H]4[C@H](O)[C@@H](O)[C@@H](O[C@H]5[C@H](O)[C@@H](O)[C@@H](O[C@H]6[C@H](O)[C@@H](O)[C@@H](O[C@H]7[C@H](O)[C@@H](O)[C@@H](O[C@H]8[C@H](O)[C@@H](O)[C@@H](O[C@H]1[C@H](O)[C@H]2O)O[C@@H]8CO)O[C@@H]7CO)O[C@@H]6CO)O[C@@H]5CO)O[C@@H]4CO)O[C@@H]3CO [β-CD, β-cyclodextrin]","either fail to bind xenon in aqueous media, or the reversible binding has too fast of an exchange rate to be detectable",
